Patent publication US4180669A, “2-(N-phenethyl-4-piperidino)-5-pentyl resorcinol” (Abbott Laboratories, priority 1978, dated 1979)
Where a name gives a salt, the structure may show the parent alone. Read-outs that look alike come from different tables or passages of the source.

Test system: pylorous ligated rats
Assay: Antisecretory activity in the pylorous ligated rat model
Assay type: in vivo, male Sprague-Dawley rats
Conditions: for inhibition in vivo at 50 mg/kg / inhibition in vivo at 12.5 mg/kg / inhibition in vivo at 25 mg/kg / inhibition in vivo at 100 mg/kg: Rattus norvegicus, 4 h; for inhibition in vivo at 12.5 mg/kg: oral dose 12.5 mg/kg
Experimental: To determine the antisecretory activity of the present compounds, the compounds were tested for such activity in pylorous ligated rats. In this test, male Sprague-Dawley rats weighing 170-190 g. were fasted for 24 hours. Water was allowed ad libitum. All groups were comprised of six rats. […] Water was withheld after drug administration. Ligation of the pyrloric sphincter was performed under ether anesthesia, and four hours after ligation the animals were sacrificed with CO2. The stomach was dissected out and the contents were expelled into a graduated centrifuge tube. The samples were centrifuged and the volume, less debris, was measured. Sample aliquots were titrated with 0.05 N NaOH to determine acid concentration. Pepsin activity was determined on an auto analyzer using hemoglobin as the substrate by the method of Anson. Group means for volume, acid and pepsin concentrations, and pepsin outputs were compared for statistically significant differences from control means by Student's t-test.

[1] = oral dose 50 mg/kg, negative sign means stimulated, read-out: Percent inhibition of pepsin
[2] = oral dose 50 mg/kg, negative sign means stimulated, read-out: Percent inhibition of pepsin output
[3] = oral dose 50 mg/kg, read-out: Percent inhibition of acid output
[4] = oral dose 50 mg/kg, read-out: Percent inhibition of acidity
[5] = oral dose 50 mg/kg, read-out: Percent inhibition of volume
[6] = oral dose 100 mg/kg, read-out: Percent inhibition of acid output
[7] = oral dose 100 mg/kg, read-out: Percent inhibition of acidity
[8] = oral dose 100 mg/kg, read-out: Percent inhibition of volume
[9] = oral dose 50 mg/kg, negative sign means stimulated

| Compound | inhibition in vivo at 50 mg/kg [1] | inhibition in vivo at 50 mg/kg [2] | inhibition in vivo at 50 mg/kg [3] | inhibition in vivo at 50 mg/kg [4] | inhibition in vivo at 50 mg/kg [5] | also measured |
| --- | --- | --- | --- | --- | --- | --- |
| CCCCCC(C)C(C)c1cc(O)c(C2CCN(C)CC2)c(O)c1 (stereo not drawn) [XVII, 2-(N-Methyl-4-piperidino)-5-(1,2-dimethylheptyl) resorcinol hydrochloride] | 40.5% | 40.6% | 38.5% | 38.1% | 0.3% |  |
| CCCCCC(C)C(C)c1cc(O)c(C2=CC3CCC(C2)N3C)c(O)c1 (stereo not drawn) [Example XXV, 2-(N-Methyl-2,6-ethylidene-1,2,3,6-tetrahydro-4-pyridyl)-5-(1,2-dimethylheptyl) resorcinol hydrochloride] | 1% | 11% | 29.4% | 21.2% | 9.7% |  |
| CCCCCC(C)C(C)c1cc(O)c(C2=CCN(CCc3ccccc3)CC2)c(O)c1 (stereo not drawn) [Example XX, 2-(N-Phenethyl-1,2,3,6-tetrahydro-4-pyridyl)-5-(1,2-dimethylheptyl) resorcinol hydrochloride] |  |  | 47.8% | 10.7% | 42.8% | inhibition in vivo at 12.5 mg/kg (read-out: Percent inhibition of acid output): 9.7%; inhibition in vivo at 12.5 mg/kg (read-out: Percent inhibition of acidity): 8.5%; inhibition in vivo at 12.5 mg/kg (read-out: Percent inhibition of volume): 2.6%; inhibition in vivo at 25 mg/kg (oral dose 25 mg/kg, read-out: Percent inhibition of acid output): 17.1%; inhibition in vivo at 25 mg/kg (oral dose 25 mg/kg, read-out: Percent inhibition of acidity): 1.7%; inhibition in vivo at 25 mg/kg (oral dose 25 mg/kg, read-out: Percent inhibition of volume): 16.9%; inhibition in vivo at 100 mg/kg [6]: 51.2%; inhibition in vivo at 100 mg/kg [7]: 19.5%; inhibition in vivo at 100 mg/kg [8]: 44.8% |
| CCCCCc1cc(O)c(C2=CCN(CCc3ccccc3)CC2)c(O)c1 [Example XIX, 2-(N-Phenethyl-1,2,3,6-tetrahydro-4-pyridyl)-5-pentyl resorcinol hydrochloride] | 6.9% | 31.7% | 27.3% | 4.2% | 25.5% |  |
| 2-(N-Propargyl-1,2,3,4-tetrahydro-4-pyridyl)-3-methoxy-5-(1,2-dimethylheptyl)phenol [XXIX] |  |  |  |  |  | Percent inhibition of acid output (oral dose 25 mg/kg): 7.8%; Percent inhibition of acidity (oral dose 25 mg/kg): 18.6%; Percent inhibition of volume (oral dose 25 mg/kg): -13.0%; Percent inhibition of acid output (oral dose 50 mg/kg): 45.6%; Percent inhibition of acidity (oral dose 50 mg/kg): 50.6%; Percent inhibition of volume (oral dose 50 mg/kg): -5.7%; Percent inhibition of pepsin [9]: 21.0%; Percent inhibition of pepsin output [9]: 23.9%; Percent inhibition of acid output (oral dose 100 mg/kg): 49.5%; Percent inhibition of acidity (oral dose 100 mg/kg): 58.1%; Percent inhibition of volume (oral dose 100 mg/kg): -21.8% |
| CCCCCC(C)C(C)c1cc(O)c(C2=CCN(C)CC2)c(OC)c1 (stereo not drawn) [Example XXVI, 2-(N-Methyl-1,2,3,6-tetrahydro-4-pyridyl)-3-methoxy-5-(1,2-dimethylheptyl)phenol hydrochloride] | 12.6% | 8.6% | 53.7% | 53.1% | -0.3% |  |
| CCCCCC(C)C(C)c1cc(O)c(C2=CCNCC2)c(O)c1 (stereo not drawn) [Example XV, 2-(1,2,3,6-Tetrahydro-4-pyridyl)-5-(1,2-dimethylheptyl) resorcinol hydrochloride] | 53.8% | 54.3% | 22.8% | 24.3% | -1.4% | inhibition in vivo at 100 mg/kg (oral dose 100 mg/kg, negative sign means stimulated, read-out: Percent inhibition of pepsin): 34.5%; inhibition in vivo at 100 mg/kg [6]: 52.8%; inhibition in vivo at 100 mg/kg [7]: 43.6%; inhibition in vivo at 100 mg/kg (oral dose 100 mg/kg, read-out: Percent inhibition of pepsin output): 41.4%; inhibition in vivo at 100 mg/kg [8]: 12.9% |
| CC(C)c1cc(O)c(C2=CCNCC2)c(O)c1 [XII, 2-(1,2,3,6-Tetrahydro-4-pyridyl)-5-isopropyl resorcinol hydrochloride] | -3.9% | 12.8% | 16.6% | 1.4% | 15.5% |  |
| CCCCCc1cc(O)c(C2CCN(C)CC2)c(O)c1 [XVIII, 2-(N-Methyl-4-piperidino)-5-pentyl resorcinol hydrochloride] | 5.6% | 1.4% | 4.5% | 8.2% | -5.2% |  |
